Columns and labels:
[1] = system: acute hepatic insufficiency induced by acetaminophen; assay: Assay of serum transaminases ALAT and ASAT after acetaminophen; assay type: in vivo, mice; conditions: MnTBAP 10 mg/kg 2 h before, after 24 hours
Protocol: The serum transaminases ALAT and ASAT are assayed 12 hours and 24 hours after the administration of acetaminophen.
Since the results risked being biased by the fact that the mice surviving 24 hours after the administration of acetaminophen were probably, regardless of the group involved, those which had the lowest transaminase activity, a second series of experiments were carried out, administering 500 mg/kg of acetaminophen, the other experimental conditions remaining the same. At this dosage, all the mice were still alive after 24 hours.
The results are illustrated by FIGS. 2A and 2B, which represent the ASAT and ALAT activity, respectively, according to the products administered.

[2] = system: acute hepatic insufficiency induced by acetaminophen; assay: Histological study of livers after acetaminophen; assay type: in vivo; conditions: mice which received acetaminophen, treated with MnTBAP
Source text: In each of the groups, the livers of several animals were removed, in order to carry out a histological study.

O=C(O)c1ccc(-c2c3nc(c(-c4ccc(C(=O)O)cc4)c4ccc([n-]4)c(-c4ccc(C(=O)O)cc4)c4nc(c(-c5ccc(C(=O)O)cc5)c5ccc2[n-]5)C=C4)C=C3)cc1.[Mn+3] [MnTBAP, Mn(III) tetrakis(5,10,15,20-benzoic acid)porphyrin]
transaminase activities (ASAT, ALAT), fold lower than without MnTBAP ([1]; acetaminophen 500 mg/kg (APAP500)): 10 fold
transaminase activities (ASAT, ALAT), fold lower than without MnTBAP ([1]; acetaminophen 1000 mg/kg (APAP1000)): 6 fold
apoptotic lesions in liver, versus untreated animals [2]: a lot fewer apoptotic lesions

From patent publication US20030118577A1, “Use of analogues of superoxide dismutase for treating hepatocellular insufficiencies” (priority 2000, published 2003)
